In ChEMBL document CHEMBL1201862, “PubChem BioAssay data set” (2004):
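In this assay, cells in 96-well plates receive the compound at five concentrations for 48 hours. Endpoints are linearly interpolated between the surrounding concentrations. At the GI50, growth is halved.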 Activity calls are given as the source filed them. No stated cut-off is given here; in the data, active = GI50 up to about 1.1 µM and inactive = higher.

Legend:
Test in all cases: inhibition of tumour cell growth, NCI panel, 48 h
CCRF-CEM = test system: CCRF-CEM
OVCAR-5 = test system: OVCAR-5
M14 = test system: M14
HT-29 = test system: HT-29
HOP-92 = test system: HOP-92
SK-OV-3 = test system: SK-OV-3
UO-31 = test system: UO-31
SK-MEL-2 = test system: SK-MEL-2
PC-3 = test system: PC-3
ACHN = test system: ACHN
CAKI-1 = test system: CAKI-1
MCF7 = test system: MCF7
NCI-H460 = test system: NCI-H460
SK-MEL-5 = test system: SK-MEL-5
SF-295 = test system: SF-295
T47D = test system: T47D
LOX IMVI = test system: LOX IMVI
RPMI-8226 = test system: RPMI-8226
HCC 2998 = test system: HCC 2998

Compound	GI50 (CCRF-CEM)	GI50 (OVCAR-5)	GI50 (M14)	GI50 (HT-29)	GI50 (HOP-92)	GI50 (SK-OV-3)	GI50 (UO-31)	GI50 (SK-MEL-2)	GI50 (PC-3)	GI50 (ACHN)	GI50 (CAKI-1)	GI50 (MCF7)	GI50 (NCI-H460)	GI50 (SK-MEL-5)	GI50 (SF-295)	GI50 (T47D)	GI50 (LOX IMVI)	GI50 (RPMI-8226)	GI50 (HCC 2998)
O=C1CSC(c2cccc(Cl)c2)N1c1c(O)c(Cl)cc(Br)c1Cl (stereo not given)	19.8 µM (inactive)	> 100 µM (inactive)	> 100 µM (inactive)	> 100 µM (inactive)	15.1 µM (inactive)	> 100 µM (inactive)	15.6 µM (inactive)	14.9 µM (inactive)	36.1 µM (inactive)	14.8 µM (inactive)	> 100 µM (inactive)	15.6 µM (inactive)	> 100 µM (inactive)	27.3 µM (inactive)	> 100 µM (inactive)	17.1 µM (inactive)	16.3 µM (inactive)	15.9 µM (inactive)	–
CC[N+](C)(CC)CCN1C(=O)c2ccccc2S1(=O)=O	> 100 µM (inactive)	> 100 µM (inactive)	> 100 µM (inactive)	> 100 µM (inactive)	> 100 µM (inactive)	> 100 µM (inactive)	> 100 µM (inactive)	> 100 µM (inactive)	> 100 µM (inactive)	> 100 µM (inactive)	> 100 µM (inactive)	> 100 µM (inactive)	> 100 µM (inactive)	> 100 µM (inactive)	> 100 µM (inactive)	> 100 µM (inactive)	> 100 µM (inactive)	> 100 µM (inactive)	–
CN(C)Cc1cc(C(F)(F)F)ccc1C(O)(c1ccccc1)c1ccccc1	6.92 µM (inactive)	14.4 µM (inactive)	12.4 µM (inactive)	5.05 µM (inactive)	13.6 µM (inactive)	17.4 µM (inactive)	12.1 µM (inactive)	18.3 µM (inactive)	14.1 µM (inactive)	16.3 µM (inactive)	12.8 µM (inactive)	14.3 µM (inactive)	14.6 µM (inactive)	14.1 µM (inactive)	17.9 µM (inactive)	18.2 µM (inactive)	15.8 µM (inactive)	5.51 µM (inactive)	–
CC1C(=O)N=C2C(=CN(Cc3ccccc3)c3ccccc32)C(=O)N1C (stereo not given)	> 100 µM (inactive)	> 100 µM (inactive)	> 100 µM (inactive)	> 100 µM (inactive)	> 100 µM (inactive)	–	> 100 µM (inactive)	> 100 µM (inactive)	> 100 µM (inactive)	> 100 µM (inactive)	> 100 µM (inactive)	> 100 µM (inactive)	> 100 µM (inactive)	> 100 µM (inactive)	–	> 100 µM (inactive)	–	> 100 µM (inactive)	> 100 µM (inactive)
CC(C)(Cl)C(Br)CC/C(=C/CBr)CBr.CC(C)(Cl)C(Br)CC/C(=C\CBr)CBr (stereo not given)	0.959 µM (active)	13.2 µM (inactive)	2 µM (inactive)	1.95 µM (inactive)	2.03 µM (inactive)	15 µM (inactive)	1.62 µM (inactive)	4.98 µM (inactive)	7.45 µM (inactive)	3.88 µM (inactive)	–	2.84 µM (inactive)	3.61 µM (inactive)	2.87 µM (inactive)	3.71 µM (inactive)	4.23 µM (inactive)	–	1.11 µM (active)	5.82 µM (inactive)
Cc1cc2[nH]c3c(C#N)c4c(c(=O)n3c2cc1C)CCCC4	> 100 µM (inactive)	18.7 µM (inactive)	14.5 µM (inactive)	> 100 µM (inactive)	87.7 µM (inactive)	14.1 µM (inactive)	> 100 µM (inactive)	> 100 µM (inactive)	> 100 µM (inactive)	72.1 µM (inactive)	> 100 µM (inactive)	> 100 µM (inactive)	> 100 µM (inactive)	32.6 µM (inactive)	16 µM (inactive)	> 100 µM (inactive)	> 100 µM (inactive)	–	> 100 µM (inactive)
